Experimental data published in patent publication US20180370927A1, “MICROBIOCIDAL OXADIAZOLE DERIVATIVES” (SYNGENTA PARTICIPATIONS AG, priority 2015, published 2018).

Experiments:
[1] = test system: Glomerella lacenarium (Colletotrichum lacenarium); experiment: Glomerella lacenarium (Colletotrichum lacenarium) liquid culture / cucumber / preventative (anthracnose); assay type: cell-based; details: 20 ppm in the applied formulation, liquid culture in PDB, 24° C., 3 to 4 days after application, read-out: disease control (inhibition of growth, photometric) compared to untreated control
How it was run: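 Cryostored conidia in potato dextrose broth added to DMSO compound solution in microtiter plates, incubated at 24° C. Growth inhibition read photometrically 3 to 4 days after application, as percent control versus untreated check; compounds tested at 20 ppm.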

[2] = test system: Puccinia recondita f. Sp. Tritici; experiment: Puccinia recondita f. sp. tritici / wheat / leaf disc curative (brown rust); assay type: in vivo; details: foliar, 200 ppm in the applied formulation, wheat leaf segments, curative (applied 1 day after inoculation), assessed 6 to 8 days after application, read-out: disease control compared to untreated control leaf disks
How it was run: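 Wheat cv. Kanzler leaf segments on agar were inoculated with spores, kept dark at 19° C, 75% RH, then sprayed with diluted formulated compound 1 day after inoculation (curative). Incubation continued at 19° C, 75% RH, 12 h light/12 h dark, with percent disease control versus untreated scored 6 to 8 days after application.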

Phakopsora pachyrhizi = Phakopsora pachyrhizi / soybean / leaf disc preventative (Asian soybean rust); assay type: in vivo; details: foliar, 200 ppm in the applied formulation, soybean leaf disks, assessed 12 to 14 days after application, read-out: disease control compared to untreated control leaf disks
How it was run: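 Soybean leaf discs on water agar were sprayed with formulated compound diluted in water, then inoculated one day later with spore suspension on the lower leaf surface. Held 24-36 h dark at 20° C., 75% RH, then 12 h light/day; percent disease control versus untreated scored 12 to 14 days after application.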

[3] = test system: Puccinia recondita f. Sp. Tritici; experiment: Puccinia recondita f. sp. tritici / wheat / leaf disc preventative (brown rust); assay type: in vivo; details: foliar, 200 ppm in the applied formulation, wheat leaf segments, preventative, assessed 7 to 9 days after application, read-out: disease control compared to untreated control leaf disks
How it was run: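 Wheat cv. Kanzler leaf segments on agar sprayed with formulated compound in water, inoculated with rust spores 1 day later. Incubated at 19° C, 75% rh, 12 h light/12 h dark; percent disease control versus untreated scored 7 to 9 days after application; tested at 200 ppm.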

CCN(C)C(=O)C(=O)NCc1ccc(-c2noc(C(F)(F)F)n2)cc1 [Compound 4.54, N′-ethyl-N′-methyl-N-[[4-[5-(trifluoromethyl)-1,2,4-oxadiazol-3-yl]phenyl]methyl] oxamide]
≥ 80%: inhibition at 20 ppm [1] | pest or weed control at 200 ppm [2] | pest or weed control at 200 ppm (Phakopsora pachyrhizi) | pest or weed control at 200 ppm [3]

CN(C)C(=O)C(=O)N(C)Cc1ccc(-c2noc(C(F)(F)F)n2)cc1 [Compound 4.29, N,N,N′-trimethyl-N'-[[4-[5-(trifluoromethyl)-1,2,4-oxadiazol-3-yl]phenyl]methyl] oxamide]
≥ 80%: inhibition at 20 ppm [1] | pest or weed control at 200 ppm [2] | pest or weed control at 200 ppm (Phakopsora pachyrhizi) | pest or weed control at 200 ppm [3]

O=C(NCc1ccc(-c2noc(C(F)(F)F)n2)c(F)c1)C(=O)c1cccs1 [Compound 1.44, N-[[3-fluoro-4-[5-(trifluoromethyl)-1,2,4-oxadiazol-3-yl]phenyl]methyl]-2-oxo-2-(2-thienyl)acetamide]
≥ 80%: inhibition at 20 ppm [1] | pest or weed control at 200 ppm [2] | pest or weed control at 200 ppm (Phakopsora pachyrhizi) | pest or weed control at 200 ppm [3]

CON(Cc1ccc(-c2noc(C(F)(F)F)n2)cc1F)C(=O)C(=O)CC(C)C [Compound 1.55, N-[[2-fluoro-4-[5-(trifluoromethyl)-1,2,4-oxadiazol-3-yl]phenyl]methyl]-N-methoxy-4-methyl-2-oxo-pentanamide]
≥ 80%: inhibition at 20 ppm [1] | pest or weed control at 200 ppm [2] | pest or weed control at 200 ppm (Phakopsora pachyrhizi) | pest or weed control at 200 ppm [3]

C#CCN(Cc1ccc(-c2noc(C(F)(F)F)n2)cc1)C(=O)C(=O)CCC [Compound 1.5, 2-oxo-N-prop-2-ynyl-N-[[4-[5-(trifluoromethyl)-1,2,4-oxadiazol-3-yl]phenyl]methyl]pentanamide]
≥ 80%: inhibition at 20 ppm [1] | pest or weed control at 200 ppm [2] | pest or weed control at 200 ppm (Phakopsora pachyrhizi) | pest or weed control at 200 ppm [3]

CCN(C)C(=O)C(=O)N(Cc1ccc(-c2noc(C(F)(F)F)n2)cc1)OC [Compound 4.73, N-ethyl-N′-methoxy-N-methyl-N′-[[4-[5-(trifluoromethyl)-1,2,4-oxadiazol-3-yl]phenyl]methyl] oxamide]
≥ 80%: inhibition at 20 ppm [1] | pest or weed control at 200 ppm [2] | pest or weed control at 200 ppm (Phakopsora pachyrhizi) | pest or weed control at 200 ppm [3]

CON(Cc1ccc(-c2noc(C(F)(F)F)n2)cc1)C(=O)C(C)=O [Compound 1.36, N-methoxy-2-oxo-N-[[4-[5-(trifluoromethyl)-1,2,4-oxadiazol-3-yl]phenyl]methyl]propanamide]
≥ 80%: inhibition at 20 ppm [1] | pest or weed control at 200 ppm [2] | pest or weed control at 200 ppm (Phakopsora pachyrhizi) | pest or weed control at 200 ppm [3]

O=C(NCc1c(F)cc(-c2noc(C(F)(F)F)n2)cc1F)C(=O)c1cccs1 [Compound 1.70, N-[[2,6-difluoro-4-[5-(trifluoromethyl)-1,2,4-oxadiazol-3-yl]phenyl]methyl]-2-oxo-2-(2-thienyl)acetamide]
≥ 80%: inhibition at 20 ppm [1] | pest or weed control at 200 ppm [2] | pest or weed control at 200 ppm (Phakopsora pachyrhizi) | pest or weed control at 200 ppm [3]

CNC(=O)C(=O)NCc1ccc(-c2noc(C(F)(F)F)n2)cc1 [Compound 4.47, N-methyl-N′-[[4-[5-(trifluoromethyl)-1,2,4-oxadiazol-3-yl]phenyl]methyl] oxamide]
≥ 80%: inhibition at 20 ppm [1] | pest or weed control at 200 ppm [2] | pest or weed control at 200 ppm (Phakopsora pachyrhizi) | pest or weed control at 200 ppm [3]

CON(Cc1ccc(-c2noc(C(F)(F)F)n2)cc1)C(=O)C(=O)c1ccccc1 [Compound 1.76, N-methoxy-2-oxo-phenyl-N-[[4-[5-(trifluoromethyl)-1,2,4-oxadiazol-3-yl]phenyl]methyl]acetamide]
≥ 80%: inhibition at 20 ppm [1] | pest or weed control at 200 ppm [2] | pest or weed control at 200 ppm (Phakopsora pachyrhizi) | pest or weed control at 200 ppm [3]

O=C(NCc1ccc(-c2noc(C(F)(F)F)n2)cc1)C(=O)c1cccs1 [Compound 1.51, 2-oxo-2-(2-thienyl)-N-[[4-[5-(trifluoromethyl)-1,2,4-oxadiazol-3-yl]phenyl]methyl]acetamide]
≥ 80%: inhibition at 20 ppm [1] | pest or weed control at 200 ppm [2] | pest or weed control at 200 ppm (Phakopsora pachyrhizi) | pest or weed control at 200 ppm [3]

CON(Cc1ccc(-c2noc(C(F)(F)F)n2)cc1)C(=O)C(=O)C(C)(C)C [Compound 1.74, N-methoxy-3,3-dimethyl-2-oxo-N-[[4-[5-(trifluoromethyl)-1,2,4-oxadiazol-3-yl]phenyl]methyl]butanamide]
≥ 80%: inhibition at 20 ppm [1] | pest or weed control at 200 ppm [2] | pest or weed control at 200 ppm (Phakopsora pachyrhizi) | pest or weed control at 200 ppm [3]

O=C(NCc1ccc(-c2noc(C(F)(F)F)n2)cc1F)C(=O)c1cccs1 [Compound 1.39, N-[[2-fluoro-4-[5-(trifluoromethyl)-1,2,4-oxadiazol-3-yl]phenyl]methyl]-2-oxo-2-(2-thienyl)acetamide]
≥ 80%: inhibition at 20 ppm [1] | pest or weed control at 200 ppm [2] | pest or weed control at 200 ppm (Phakopsora pachyrhizi) | pest or weed control at 200 ppm [3]

CCN(Cc1ccc(-c2noc(C(F)(F)F)n2)cc1)C(=O)C(N)=O [Compound 4.28, N′-ethyl-N′-[[4-[5-(trifluoromethyl)-1,2,4-oxadiazol-3-yl]phenyl]methyl] oxamide]
≥ 80%: inhibition at 20 ppm [1] | pest or weed control at 200 ppm [2] | pest or weed control at 200 ppm (Phakopsora pachyrhizi) | pest or weed control at 200 ppm [3]

CCC(=O)C(=O)N(Cc1ccc(-c2noc(C(F)(F)F)n2)cc1F)OC [Compound 1.58, N-[[2-fluoro-4-[5-(trifluoromethyl)-1,2,4-oxadiazol-3-yl]phenyl]methyl]-N-methoxy-2-oxo-butanamide]
≥ 80%: inhibition at 20 ppm [1] | pest or weed control at 200 ppm [2] | pest or weed control at 200 ppm (Phakopsora pachyrhizi) | pest or weed control at 200 ppm [3]

CCC(=O)C(=O)NCc1ccc(-c2noc(C(F)(F)F)n2)c(F)c1 [Compound 1.78, N-[[3-fluoro-4-[5-(trifluoromethyl)-1,2,4-oxadiazol-3-yl]phenyl]methyl]-2-oxo-butanamide]
≥ 80%: inhibition at 20 ppm [1] | pest or weed control at 200 ppm [2] | pest or weed control at 200 ppm (Phakopsora pachyrhizi) | pest or weed control at 200 ppm [3]

O=C(NCc1ccc(-c2noc(C(F)(F)F)n2)cc1)C(=O)c1ccccc1 [Compound 1.75, 2-oxo-2-phenyl-N-[[4-[5-(trifluoromethyl)-1,2,4-oxadiazol-3-yl]phenyl]methyl]acetamide]
≥ 80%: inhibition at 20 ppm [1] | pest or weed control at 200 ppm [2] | pest or weed control at 200 ppm (Phakopsora pachyrhizi) | pest or weed control at 200 ppm [3]

CCC(=O)C(=O)N(C)Cc1ccc(-c2noc(C(F)(F)F)n2)cc1 [Compound 1.98, N-methyl-2-oxo-N-[[4-[5-(trifluoromethyl)-1,2,4-oxadiazol-3-yl]phenyl]methyl]butanamide]
≥ 80%: inhibition at 20 ppm [1] | pest or weed control at 200 ppm [2] | pest or weed control at 200 ppm (Phakopsora pachyrhizi) | pest or weed control at 200 ppm [3]

CON(Cc1ccc(-c2noc(C(F)(F)F)n2)cc1)C(=O)C(=O)N(C)C [Compound 4.39, N′-methoxy-N,N-dimethyl-N′-[[4-[5-(trifluoromethyl)-1,2,4-oxadiazol-3-yl]phenyl]methyl] oxamide]
≥ 80%: inhibition at 20 ppm [1] | pest or weed control at 200 ppm [2] | pest or weed control at 200 ppm (Phakopsora pachyrhizi) | pest or weed control at 200 ppm [3]

C=CCN(Cc1ccc(-c2noc(C(F)(F)F)n2)cc1)C(=O)C(=O)CCC [Compound 1.17, N-allyl-2-oxo-N-[[4-[5-(trifluoromethyl)-1,2,4-oxadiazol-3-yl]phenyl]methyl]pentanamide]
≥ 80%: inhibition at 20 ppm [1] | pest or weed control at 200 ppm [2] | pest or weed control at 200 ppm (Phakopsora pachyrhizi) | pest or weed control at 200 ppm [3]

CCCC(=O)C(=O)N(CC)Cc1ccc(-c2noc(C(F)(F)F)n2)cc1 [Compound 1.19, N-ethyl-2-oxo-N-[[4-[5-(trifluoromethyl)-1,2,4-oxadiazol-3-yl]phenyl]methyl]pentanamide]
≥ 80%: inhibition at 20 ppm [1] | pest or weed control at 200 ppm [2] | pest or weed control at 200 ppm (Phakopsora pachyrhizi) | pest or weed control at 200 ppm [3]

CC(C)(C)C(=O)C(=O)NCc1ccc(-c2noc(C(F)(F)F)n2)c(F)c1F [Compound 1.49, N-[[2,3-difluoro-4-[5-(trifluoromethyl)-1,2,4-oxadiazol-3-yl]phenyl]methyl]-3,3-dimethyl-2-oxo-butanamide]
≥ 80%: inhibition at 20 ppm [1] | pest or weed control at 200 ppm [2] | pest or weed control at 200 ppm (Phakopsora pachyrhizi) | pest or weed control at 200 ppm [3]

CCON=C(C)C(=O)N(Cc1ccc(-c2noc(C(F)(F)F)n2)cc1)OC [Compound 2.12, 2-ethoxyimino-N-methoxy-N-[[4-[5-(trifluoromethyl)-1,2,4-oxadiazol-3-yl]phenyl]methyl] propanamide]
≥ 80%: inhibition at 20 ppm [1] | pest or weed control at 200 ppm [2] | pest or weed control at 200 ppm (Phakopsora pachyrhizi) | pest or weed control at 200 ppm [3]
